Consider four compounds from patent publication US20230320995A1, “IONIZABLE CATIONIC LIPIDS AND LIPID NANOPARTICLES” (CAPSTAN THERAPEUTICS, INC., priority 2022, published 2023).

Read-outs that look alike come from different tables or passages of the source.

A short description of data set [1]: apparent pKa of ionizable lipid in lipid nanoparticle, TNS assay. It counts as physicochemical. The note with it: for ΔpKa: difference of calculated and measured pKa; for pKa: TNS assay. The procedure: c Log D and c-pKa were calculated as noted above. The measured pKa of a lipid was determined as formulated in a lipid nanoparticle using the TNS assay as described in the following Example.
The apparent pKa of ionizable lipid in the lipid nanoparticle was determined using 6-(p-toluidino)-2-naphthalenesulfonic acid sodium salt (TNS salt, Toronto Research Chemicals, Toronto, ON, Canada). Lipid nanoparticles were diluted in 1×Dulbecco's PBS to a concentration of 1 mM total lipids. TNS salt was prepared as a 1 mg/mL stock solution in DMSO and then further diluted using distilled water to a working solution of 60 μg/mL ([…]). Diluted lipid nanoparticle samples were further diluted to 90 μM total lipids in 165 μL of buffered solution containing 10 mM HEPES, 10 mM MES, 10 mM ammonium acetate, 130 mM NaCl, and final TNS concentration of 1.33 μg/mL (4 μM) with the pH ranging from 3.5 to 12.2. Following pipette mixing and incubation at room temperature in the dark for 15 min, fluorescence intensity was measured at room temperature in a BioTek Synergy H1 plate reader using excitation and emission wavelengths of 321 and 445 nm, respectively. The fluorescence signal was blank subtracted and plotted as a function of the pH, then analyzed using a nonlinear (Boltzmann) regression analysis with the apparent pKa determined as the pH giving rise to half maximal fluorescence intensity as calculated by the Henderson-Hasselbalch equation.

Data set [2] in a line: physical-chemical properties of CD5-targeted tLNP encapsulating mCherry mRNA. It is filed as physicochemical. The note with it: for Hydrodynamic diameter: anti-CD5 tLNP: ionizable lipid/DSPC/cholesterol/DMG-PEG 2000/DSPE-PEG2000-Maleimide 50:10:38.5:1.4:0.1; for Hydrodynamic diameter / PDI (polydispersity index): DLS; for PDI (polydispersity index) / Encapsulation Efficiency: anti-CD5 tLNP; for Encapsulation Efficiency: RiboGreen assay. The text has this:
CleanCap® mCherry 5-methoxyuridine (5moU) mRNA (L-7203) was purchased from TriLink. mRNA was encapsulated in LNP using a self-assembly process in which an aqueous solution of mRNA at pH=3.5 is rapidly mixed with a solution of lipids dissolved in ethanol, then followed by stepwise phosphate and Tris buffer dilution and TFF purification. LNP composition in this study was: ionizable cationic lipid/distearoylphosphatidylcholine/cholesterol/DMG-PEG 2000/distearoylphosphatidyl ethanolamine(DSPE)-PEG2000-Maleimide (50:10:38.5:1.4:0.1 mol/mol) and were encapsulated at an N/P ratio (the ratio of positively-chargeable […] amine (N=nitrogen) groups to negatively-charged nucleic acid phosphate (P) groups) at 6. The hydrodynamic diameter of the nanoparticles was measured by dynamic light scattering using a Zetasizer Nano ZS (Malvern Instruments Ltd., Malvern, UK) instrument.
Next, an anti-CD5 mAb was conjugated to the above LNP to generate tLNP. Purified rat anti-mouse CD5 antibody, clone 53-7.3 (BioLegend), was coupled to LNP via N-succinimidyl S-acetylthioacetate (SATA)-maleimide conjugation chemistry. Briefly, LNPs with DSPE-PEG(2000)-maleimide incorporated were formulated and stored at 4° C. on the day of conjugation. The antibody was modified with SATA (Sigma-Aldrich) to introduce sulfhydryl groups at accessible lysine residues allowing conjugation to maleimide. SATA was deprotected using 0.5 M hydroxylamine followed by removal of the unreacted components by G-25 Sephadex Quick Spin Protein columns (Roche Applied Science, Indianapolis, IN). The reactive sulfhydryl group on the antibody was then conjugated to maleimide moieties on the LNPs using thioether conjugation chemistry. Purification was performed using Sepharose CL-4B gel filtration columns (Sigma-Aldrich). tLNPs (LNPs conjugated with a targeting antibody) were frozen at −80° C. Others have conjugated antibody to free functionalized PEG-lipid and then incorporated the conjugated lipid into pre-formed LNP.
mRNA content was determined using a Quant-iT™ RiboGreen RNA assay kit (Invitrogen™). Encapsulation efficiency was calculated by determining the unencapsulated mRNA content by measuring the fluorescence intensity (Fi) upon the addition of RiboGreen reagent to the LNP and comparing this value to the total fluorescence intensity (Ft) of the RNA content that is obtained upon lysis of the LNPs by 1% Triton X-100, where % encapsulation=(Ft−Fi)/Ft x 100).
The particle size (hydrodynamic diameter) and polydispersity index of the targeted lipid nanoparticles were determined using dynamic light scattering (DLS) on a Malvern Zetasizer Nano ZS (Malvern Instruments, Worcestershire, UK). Size measurement was carried out in pH 7.4 Tris buffer at 25° C. in relevant disposable capillary cells. A non-invasive back scatter system (NIBS) with a scattering angle of 173° was used for size measurements.

The nature of data set [3]: physical-chemical properties of LNP encapsulating mCherry mRNA. As to conditions: for Encapapsulation Efficiency / PDI (polydispersity index): LNP 50:10:38.5:1.5, mCherry mRNA; for Encapapsulation Efficiency / Hydrodynamic diameter: N/P 6; for PDI (polydispersity index) / Hydrodynamic diameter: DLS; for Hydrodynamic diameter: LNP: ionizable lipid/DSPC/cholesterol/DMG-PEG2000 50:10:38.5:1.5, mCherry mRNA, pH 7.4 Tris, 25° C. It counts as physicochemical. The text has this:
The mRNA was encapsulated in LNP using a self-assembly process in which an aqueous solution of mRNA at pH=3.5 is rapidly mixed with a solution of lipids dissolved in ethanol, then followed by stepwise phosphate and Tris buffer dilution and tangential flow filtration (TFF) purification. LNP composition in this study was: ionizable cationic lipid/distearoylphosphatidylcholine/cholesterol/DMG-PEG2000 (50:10:38.5:1.5 mol/mol) and were encapsulated at an N/P ratio (the ratio of positively-chargeable lipid amine (N=nitrogen) groups to negatively-charged nucleic acid phosphate (P) groups) at 6. LNPs were frozen at −80° C. […] The diameter of the nanoparticles was measured by dynamic light scattering using a Zetasizer Nano ZS (Malvern Instruments Ltd., Malvern, UK) instrument. Size measurement was carried out in pH 7.4 Tris buffer at 25° C. in relevant disposable capillary cells. A non-invasive back scatter system (NIBS) with a scattering angle of 173° was used for size measurements.

Data set [4] is described as follows: ex vivo stability in mouse plasma. It counts as in vitro ADME. The note with it: CD-1 mouse plasma, 37° C., 1 μM lipid. The procedure: To determine the stability of the disclosed lipids in mouse plasma lipid stock solution was prepared by dissolution of the lipid in isopropanol at the concentration of 5 mg/mL. A requisite volume of the lipid-isopropanol solution was then diluted to 100 μM concentration at a total volume of 10.0 mL with 50:50 (v/v) ethanol/water. Ten microliters of this 100 μM solution was spiked into 10.0 mL of mouse plasma (BioIVT, Lot MSE394920, CD-1 mouse, anticoagulant: sodium heparin, not filtered) that was prewarmed to 37° C. and stirred at 50 rpm with a magnetic stir bar. The starting concentration of lipids in plasma was thus 1 μM. Aliquots (50 μL) were taken after 0, 15, 30, 45, 60, and 120 minutes, transferred to microcentrifuge tubes and quenched with three volumes (150 μL) of ice cold acetonitrile/methanol (4:1). Positive control incubations utilized the same plasma, with Benfluorex (1 μM) as the substrate with Labetalol (1.0 μgl) as the in situ disappearance. The quenched solutions were vortexed, centrifuged for 5 minutes at 13,000 rpm, and supernatant (100 μL) transferred to a 96-well plate and diluted with water (200 μL, 0.1% FA). After filtration through a 0.45 μm 96-well filtering plate, the filtrates were analyzed by LC-MS (Waters AQUITY I-class UPLC system, ThermoScientific Vanquish UPLC system consisting of a binary pump, autosampler, and column compartment, Waters Xevo G2-XS QT of mass spectrometer; Phenomenex F5, 1.7 μm, 2.1×50 mm column). Mobile phase A was 0.1% formic acid in water, and mobile phase B was 0.1% formic acid in acetonitrile. The flow rate was 0.6 mL/min. Elution gradient was as follows: time, 0.5 min: 20% B; 0.5-2 min: 20-100% B; 2-4.8 min: 100% B; 4.8-5.45 min: 100-20% B. Mass spectrometry was in positive scanning mode from 600-1100 m/z. The peak of the molecular ion of the lipids was integrated in extracted ion chromatography (XIC) using Xcalibur software (Thermo Fisher). The relative peak area compared to T=0, after normalization by the peak area of the internal standard, was used as the percentage of the lipid remaining at each time point. T1/2 values were calculated using the first-order decay model.

Setting [5] is: ionizable lipid in tLNP, read-out: Measured pKa.
[6] abbreviates: measured, lipid formulated in a lipid nanoparticle, read-out: pKa.

As usually defined, the pKa is the negative logarithm of the acid dissociation constant. As to `CCCCCCCCC(=O)OCC(COC(=O)CCCCCCCC)CC(=O)OCCN(CCOC(=O)CC(COC(=O)CCCCCCCC)COC(=O)CCCCCCCC)C(=O)N(C)CCN(C)C` [Compound A-14], the ΔpKa in data set [1] is on record as 0.91. Also, in data set [1] (setting [5]), the pKa turned out to be 7.46. Further, the pKa in data set [1] (setting [6]) was found to be 7.46. In data set [2], the “Hydrodynamic diameter” value is 100 nm, the “PDI (polydispersity index)” value is given as 0.05 and the “Encapsulation Efficiency” value is recorded as 95%. Further, in data set [3], the “Encapapsulation Efficiency” value is listed as 91%, the “PDI (polydispersity index)” value stood at 0.03 and the Hydrodynamic diameter was found to be 127 nm. Moreover, the “ex vivo Mouse Plasm Stability % Remaining at 2 Hours” value in data set [4] was found to be 61%.
`CCCCCCCCC(=O)OCC(COC(=O)CCCCCCCC)CC(=O)OCCN(CCOC(=O)CC(COC(=O)CCCCCCCC)COC(=O)CCCCCCCC)C(=O)N(C)CCCN(C)C` [Compound A-15]: in data set [1], the ΔpKa is recorded as 1.18. The pKa in data set [1] (setting [5]) is 8.37. Moreover, the pKa in data set [1] (setting [6]) is 8.37. In addition, in data set [2], the “Hydrodynamic diameter” value is reported as 136 nm, the “PDI (polydispersity index)” value worked out at 0.15 and the “Encapsulation Efficiency” value is recorded as 98%. In data set [3], the “Encapapsulation Efficiency” value was 99%, the “PDI (polydispersity index)” value is on record as 0.07 and the Hydrodynamic diameter is listed as 97 nm. In data set [4], the “ex vivo Mouse Plasm Stability % Remaining at 2 Hours” value amounted to 69%.
Turning to `CCCCCCCCC(=O)OCC(COC(=O)CCCCCCCC)CC(=O)OCCN(CCOC(=O)CC(COC(=O)CCCCCCCC)COC(=O)CCCCCCCC)C(=O)OCCCN(C)C` [Compound A-12], the ΔpKa in data set [1] is 1.91. Further, in data set [1] (setting [5]), the pKa stood at 7.35. Also, in data set [1] (setting [6]), the pKa amounted to 7.35. For the same compound, in data set [2], the “Hydrodynamic diameter” value is 98 nm, the “PDI (polydispersity index)” value is 0.07 and the “Encapsulation Efficiency” value amounted to 92%. In data set [3], the “Encapapsulation Efficiency” value was determined as 91%, the “PDI (polydispersity index)” value is 0.04 and the Hydrodynamic diameter is given as 104 nm. In addition, the “ex vivo Mouse Plasm Stability % Remaining at 2 Hours” value in data set [4] is 85%.
With `CCCCCCCCC(=O)OCC(COC(=O)CCCCCCCC)CC(=O)OCCN(CCOC(=O)CC(COC(=O)CCCCCCCC)COC(=O)CCCCCCCC)C(=O)NCCN(C)C` [Compound A-13], the ΔpKa in data set [1] is reported as 0.80. The pKa in data set [1] (setting [5]) is 7.51. Besides, in data set [1] (setting [6]), the pKa turned out to be 7.51. For the same compound, in data set [2], the “Hydrodynamic diameter” value is on record as 100 nm, the “PDI (polydispersity index)” value amounted to 0.10 and the “Encapsulation Efficiency” value was determined as 99%. In addition, in data set [3], the “Encapapsulation Efficiency” value was 99% and the Hydrodynamic diameter is reported as 101 nm. For the same compound, in data set [4], the “ex vivo Mouse Plasm Stability % Remaining at 2 Hours” value came out at 64%.
